From publication PMC9889419 (Pharmacological Reports, 2022)
Several values for one entry are separate records, joined by “and”; a condition that tells them apart may be missing. Identical values can stand only once. Counter-ions that a name gives are not always drawn. Like-named read-outs stand apart in the source and are kept apart here. Marks after values point to notes of the source that are not given here.

Tests used:
[1] = Degradation kinetics under basic conditions; format: physicochemical; conditions: 70.0 ± 0.5 °C, pH 9.90, 1,4-dioxane 20% v/v
Description: Chromatographic conditions. The liquid chromatography system Merck-Hitachi LaChrom Elite, equipped with a LiChroSpher RP-18 (250 × 4.6 mm; particle size 5 µm) column from Merck was used. Isocratic elution using a mobile phase composed of phosphate buffer pH = 4.36 and acetonitrile (40:60, v/v) at a flow rate of 1 mL min^−1 at 25 °C and single-wavelength UV detection at 260 nm was applied for the analysis. The injection volume was 20 µL.
Kinetic studies. […] After 5 min, first 50 µL sample was taken using a Hamilton syringe. The sample was diluted with 100 µL of pH = 4.36 phosphate buffer and frozen at − 18 °C. The reaction was conducted for 1606 h with samples taken at selected time intervals. After the experiment was finished, the samples have been defrosted and analyzed using the RP-HPLC method described above.

Tissue distribution = format: in vivo, rats; conditions: for t0.5λz / Cmax / MRT / Tmax / Kp / k el: 5 mg/kg iv; for Kp: read-out: Kp (tissue-to-plasma AUC ratio); for k el: read-out: λz (converted)
Description: Pharmacokinetic study design. Male Wistar rats (250–300 g) bred in-house from progenitors obtained from Charles River Laboratories (Sulzfed, Germany) were used in this study. […] Moreover, this compound dissolved in the same solvent was administered orally (po) by oral gavage at two doses (50 and 100 mg/kg) (n = 4). Blood samples were collected from the catheter at various time points up to 5 h. […] The animals were anaesthetized (50/7.5 mg/kg ketamine/xylazine, ip) and sacrificed by decapitation at 5, 15, 30, 60, 120, 180, and 300 min after compound administration (n = 4 per time point). Blood was collected into heparinized tubes and organs such as liver, brain, lungs, kidneys, and heart were harvested. The blood samples were centrifuged at 4000 rpm for 10 min (EBA 12R, Hettich, Germany). Plasma and organs were stored at − 80 °C until analysis.
Before analysis, tissue samples were homogenized in phosphate-buffered saline, pH 7.4 (1:4, w/v) with a tissue homogenizer (TH220; Omni International, Inc., Warrenton, VA, USA). Plasma (100 μL) or homogenate samples (500 μL) were mixed with an internal standard (IS) solution (R-( +)-propranolol, 4 μg/mL in methanol). Then, 20 μL of sodium carbonate (0.125 M) was added to each tube and the samples were extracted with 3 mL of diethyl ether by vortexing for 1 min. After centrifugation (3000 rpm, 15 min), the organic phase was transferred to a new tube and evaporated to dryness under a gentle stream nitrogen at 37 °C in a water bath. The dry residue was reconstituted in 100 μL of acetonitrile. Subsequently, 50 μL of 0.2 M borate buffer (pH = 7.0) and 50 μL of 6 mM FMOC-Cl solution in acetonitrile were added. […] The reaction was stopped by the addition of 0.1 M solution of glycine in water (30 μL) and vortexing for 1 min. The reaction mixture was transferred directly into the autosampler vials. The chromatographic system (Merck-HITACHI, Japan) consisted of an L-2485 spectrofluorimetric detector operating at the excitation and emission wavelengths of 267 and 316 nm, respectively, an L-2130 pump, an L-2350 column oven, and an L-2200 autosampler. The EZChrom Elite Client/Server version 3.2 (Agilent Technologies Inc.) was used for data acquisition and processing. […] The column temperature was maintained at 50 °C. The mobile phase consisted of a mixture of acetonitrile and water (67:33, v/v), and pumped at a flow rate of 1 mL/min.
Pharmacokinetic data analysis. Plasma and tissue concentration versus time profiles were analyzed by the non-compartmental approach in Phoenix WinNonlin v. 6.3 software (Pharsight Corporation, Mountain View, CA, USA). The peak concentration (Cmax) and the time to reach Cmax (tmax) were obtained directly from individual concentration–time profiles. The initial concentration (C0) after an iv dosing was obtained by extrapolation to zero time. The linear trapezoidal rule was applied to calculate the areas under the concentration–time curve (AUC) from the time of dosing to the last measured data point (AUC0-t) or infinity (AUC0-∞). The terminal slope (λz) was estimated by linear regression and the terminal half-life (t0.5λz) was calculated as ln2/λz. The volume of distribution based on the terminal phase (Vz) was calculated as: Dose/(λz ∙ AUC0-∞), whereas clearance (CL) was obtained from the following equation: Dose/AUC0-∞. The mean residence time (MRT) was defined as: AUMC0-∞/AUC0-∞, where AUMC is the area under the first moment curve. The absolute bioavailability (Fa) was calculated according to the equation: (AUCpo./Dosepo)/(AUCiv/Doseiv).

mice [2] = test: Hot plate test; format: in vivo
Description: The hot plate test was performed as previously described. The mice were ip pre-treated 30 min before experiment either with the compound, dissolved in saline (at doses 10, 30 and 100 mg/kg) or vehicle and were placed on a hot plate set at 55 °C (Hot plate, Omega 2A, Poland). Latency to nocifensive reaction (hind paw licking or jumping) of mice was recorded. The mouse was removed from the plate immediately upon licking a hind paw/jumping or if no response occurred within 60 s (cut-off).

guinea pigs = test: Infiltration anesthesia (intradermal wheal test); format: in vivo
Description: A painful reaction to a prick of the skin at the centre of the wheal three times and every 5 s with 5 min intervals during the first 30 min of observation was tested. The experiment was continued to achieve a return of a reaction to the prick. The control wheal was done by an intradermal injection of 0.1 mL of 0.9% NaCl [25]. Local anesthesia was determined by calculating the ratio of the number of positive responses (no flinch) to the number of negative responses (flinch).

Acute toxicity (LD50) = conditions: in vivo; for LD50 at 24 h: iv; for LD50 at 72 h: po
Description: Acute toxicity. The tested compounds were dissolved in 0.9% saline and administered po and injected into the caudal vein (iv) of mouse or rats at the constant volume of 10 mL/kg and 1 mL/kg, respectively. Each dose was given to six animals.

mice [3] = test: Formalin test (first screening); format: in vivo; conditions: ip
Description: Formalin test. The first screening in doses 15 and 30 mg/kg was performed at the Jagiellonian University-Medical College. […] After 30 min, animals were injected with 20 μL of a 0.5% formalin solution into the plantar surface of the hind paw. The total time spent by animal licking or biting the injected paw was assessed for the following 40 min.

rats = test: Sciatic nerve ligation (SNL) model, von Frey test; format: in vivo; conditions: rats; for Threshold ± S.E.M. / % Pre-Drug ± S.E.M.: 6 mg/kg b.w., i.p.
MTT assay = format: cell-based, murine; conditions: mouse, astrocyte cell line (ATCC CRL-2541); 250 µM; read-out: cell viability compared to control
Description: Cells were seeded at a density of 1 × 10^4 cells per well in 96 well plates. […] Next, Crystal Dissolving Solution (Cayman) was added to each well.

mice [4] = test: Writhing test; format: in vivo; conditions: 30 mg/kg
Description: Inflammatory acute pain—writhing test. In this test, mice were placed individually into glass beakers and were allowed to habituate for the next 30 min. Then, each mouse was injected with tested compound, dissolved in saline (at a dose 30 mg/kg) or vehicle, and then placed back into the glass beaker for 30 min. To induce inflammatory pain, 0.9% acetic acid solution (Polskie Odczynniki Chemiczne, Poland) prepared in saline was injected by the intraperitoneal route. Mice were placed in the beakers again and were observed continuously for the next 30 min. Stereotypical writhes (lengthwise constrictions of the torso with a concomitant concave arching of the back) were counted over this period in drug-treated and control mice.

hNav1.5 sodium channel = molecular target: T1, hNav1.5 sodium channel (Homo sapiens, UniProt Q14524); test: Nav channel electrophysiology (IonWorks Quattro); format: cell-based
T1 construct: host or cells: CHO cells

hNav1.3 sodium channel = molecular target: T2, hNav1.3 sodium channel (Homo sapiens, UniProt Q9NY46); test: Nav channel electrophysiology (IonWorks Quattro); format: cell-based
T2 construct: host or cells: CHO cells
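Wherever Cmax is given: organ homogenates in PBS analysed by HPLC after FMOC-Cl derivatization, non-compartmental analysis, Kp as tissue over plasma AUC, half-life taken as ln2 divided by λz.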
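Wherever concentration in rat brain (approximated) is given: organ homogenates in PBS analysed by HPLC after FMOC-Cl derivatization, non-compartmental analysis, Kp as tissue over plasma AUC, half-life taken as ln2 divided by λz.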
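Wherever concentration in rat brain is given: organ homogenates in PBS analysed by HPLC after FMOC-Cl derivatization, non-compartmental analysis, Kp as tissue over plasma AUC, half-life taken as ln2 divided by λz.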
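Wherever t0.5λz is given: organ homogenates in PBS analysed by HPLC after FMOC-Cl derivatization, non-compartmental analysis, Kp as tissue over plasma AUC, half-life taken as ln2 divided by λz.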

T2 sequence (Q9NY46 whole entry): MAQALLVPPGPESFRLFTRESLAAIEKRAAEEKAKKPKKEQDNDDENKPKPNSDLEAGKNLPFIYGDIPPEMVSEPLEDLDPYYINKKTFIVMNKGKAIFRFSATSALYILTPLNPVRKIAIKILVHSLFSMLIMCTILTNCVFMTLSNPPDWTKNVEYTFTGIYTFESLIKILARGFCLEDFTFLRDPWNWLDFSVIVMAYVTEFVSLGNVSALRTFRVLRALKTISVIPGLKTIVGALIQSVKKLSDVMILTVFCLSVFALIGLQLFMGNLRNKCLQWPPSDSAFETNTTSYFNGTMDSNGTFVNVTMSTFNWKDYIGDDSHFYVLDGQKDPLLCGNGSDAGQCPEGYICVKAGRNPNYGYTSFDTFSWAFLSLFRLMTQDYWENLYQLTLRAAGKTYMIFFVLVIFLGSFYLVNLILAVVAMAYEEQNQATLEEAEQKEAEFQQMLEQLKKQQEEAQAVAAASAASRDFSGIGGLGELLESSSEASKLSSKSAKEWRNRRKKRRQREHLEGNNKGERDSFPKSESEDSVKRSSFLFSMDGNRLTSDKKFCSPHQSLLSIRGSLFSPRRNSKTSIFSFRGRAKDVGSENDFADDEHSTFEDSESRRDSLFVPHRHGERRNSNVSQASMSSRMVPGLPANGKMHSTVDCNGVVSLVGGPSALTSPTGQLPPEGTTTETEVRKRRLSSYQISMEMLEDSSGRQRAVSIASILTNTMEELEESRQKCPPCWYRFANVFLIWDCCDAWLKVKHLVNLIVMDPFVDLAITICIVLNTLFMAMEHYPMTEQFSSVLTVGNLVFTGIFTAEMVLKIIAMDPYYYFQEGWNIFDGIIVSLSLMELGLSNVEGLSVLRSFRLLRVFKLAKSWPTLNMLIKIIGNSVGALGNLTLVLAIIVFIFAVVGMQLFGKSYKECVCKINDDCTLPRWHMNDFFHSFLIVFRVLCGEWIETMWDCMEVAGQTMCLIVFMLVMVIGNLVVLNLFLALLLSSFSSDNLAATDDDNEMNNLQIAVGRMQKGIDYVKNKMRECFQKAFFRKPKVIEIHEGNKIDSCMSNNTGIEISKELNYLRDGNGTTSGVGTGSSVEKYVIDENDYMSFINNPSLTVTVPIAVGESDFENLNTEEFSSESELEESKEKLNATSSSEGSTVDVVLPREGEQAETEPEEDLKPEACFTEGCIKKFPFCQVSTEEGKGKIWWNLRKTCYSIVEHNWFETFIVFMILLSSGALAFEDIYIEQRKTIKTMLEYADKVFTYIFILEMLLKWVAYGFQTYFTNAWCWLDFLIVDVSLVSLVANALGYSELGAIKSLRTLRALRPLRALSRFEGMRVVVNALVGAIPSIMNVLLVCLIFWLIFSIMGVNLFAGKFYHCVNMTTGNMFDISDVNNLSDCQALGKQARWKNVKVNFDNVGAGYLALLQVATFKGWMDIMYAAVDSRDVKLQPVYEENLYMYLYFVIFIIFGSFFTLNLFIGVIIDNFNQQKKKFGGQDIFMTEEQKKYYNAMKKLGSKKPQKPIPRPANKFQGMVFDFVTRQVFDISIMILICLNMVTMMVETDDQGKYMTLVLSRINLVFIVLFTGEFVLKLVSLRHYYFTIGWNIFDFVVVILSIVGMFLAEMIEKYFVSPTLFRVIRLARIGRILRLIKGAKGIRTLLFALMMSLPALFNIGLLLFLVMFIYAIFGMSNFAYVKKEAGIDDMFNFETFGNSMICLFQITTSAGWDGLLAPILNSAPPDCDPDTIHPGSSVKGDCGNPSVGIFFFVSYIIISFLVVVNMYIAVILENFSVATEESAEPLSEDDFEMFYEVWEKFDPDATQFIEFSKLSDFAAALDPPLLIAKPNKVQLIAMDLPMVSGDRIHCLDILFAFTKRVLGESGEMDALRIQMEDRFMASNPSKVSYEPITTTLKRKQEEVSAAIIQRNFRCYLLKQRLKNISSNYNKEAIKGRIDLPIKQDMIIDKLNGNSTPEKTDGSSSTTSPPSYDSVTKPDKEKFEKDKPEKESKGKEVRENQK
T1 sequence (Q14524 whole entry): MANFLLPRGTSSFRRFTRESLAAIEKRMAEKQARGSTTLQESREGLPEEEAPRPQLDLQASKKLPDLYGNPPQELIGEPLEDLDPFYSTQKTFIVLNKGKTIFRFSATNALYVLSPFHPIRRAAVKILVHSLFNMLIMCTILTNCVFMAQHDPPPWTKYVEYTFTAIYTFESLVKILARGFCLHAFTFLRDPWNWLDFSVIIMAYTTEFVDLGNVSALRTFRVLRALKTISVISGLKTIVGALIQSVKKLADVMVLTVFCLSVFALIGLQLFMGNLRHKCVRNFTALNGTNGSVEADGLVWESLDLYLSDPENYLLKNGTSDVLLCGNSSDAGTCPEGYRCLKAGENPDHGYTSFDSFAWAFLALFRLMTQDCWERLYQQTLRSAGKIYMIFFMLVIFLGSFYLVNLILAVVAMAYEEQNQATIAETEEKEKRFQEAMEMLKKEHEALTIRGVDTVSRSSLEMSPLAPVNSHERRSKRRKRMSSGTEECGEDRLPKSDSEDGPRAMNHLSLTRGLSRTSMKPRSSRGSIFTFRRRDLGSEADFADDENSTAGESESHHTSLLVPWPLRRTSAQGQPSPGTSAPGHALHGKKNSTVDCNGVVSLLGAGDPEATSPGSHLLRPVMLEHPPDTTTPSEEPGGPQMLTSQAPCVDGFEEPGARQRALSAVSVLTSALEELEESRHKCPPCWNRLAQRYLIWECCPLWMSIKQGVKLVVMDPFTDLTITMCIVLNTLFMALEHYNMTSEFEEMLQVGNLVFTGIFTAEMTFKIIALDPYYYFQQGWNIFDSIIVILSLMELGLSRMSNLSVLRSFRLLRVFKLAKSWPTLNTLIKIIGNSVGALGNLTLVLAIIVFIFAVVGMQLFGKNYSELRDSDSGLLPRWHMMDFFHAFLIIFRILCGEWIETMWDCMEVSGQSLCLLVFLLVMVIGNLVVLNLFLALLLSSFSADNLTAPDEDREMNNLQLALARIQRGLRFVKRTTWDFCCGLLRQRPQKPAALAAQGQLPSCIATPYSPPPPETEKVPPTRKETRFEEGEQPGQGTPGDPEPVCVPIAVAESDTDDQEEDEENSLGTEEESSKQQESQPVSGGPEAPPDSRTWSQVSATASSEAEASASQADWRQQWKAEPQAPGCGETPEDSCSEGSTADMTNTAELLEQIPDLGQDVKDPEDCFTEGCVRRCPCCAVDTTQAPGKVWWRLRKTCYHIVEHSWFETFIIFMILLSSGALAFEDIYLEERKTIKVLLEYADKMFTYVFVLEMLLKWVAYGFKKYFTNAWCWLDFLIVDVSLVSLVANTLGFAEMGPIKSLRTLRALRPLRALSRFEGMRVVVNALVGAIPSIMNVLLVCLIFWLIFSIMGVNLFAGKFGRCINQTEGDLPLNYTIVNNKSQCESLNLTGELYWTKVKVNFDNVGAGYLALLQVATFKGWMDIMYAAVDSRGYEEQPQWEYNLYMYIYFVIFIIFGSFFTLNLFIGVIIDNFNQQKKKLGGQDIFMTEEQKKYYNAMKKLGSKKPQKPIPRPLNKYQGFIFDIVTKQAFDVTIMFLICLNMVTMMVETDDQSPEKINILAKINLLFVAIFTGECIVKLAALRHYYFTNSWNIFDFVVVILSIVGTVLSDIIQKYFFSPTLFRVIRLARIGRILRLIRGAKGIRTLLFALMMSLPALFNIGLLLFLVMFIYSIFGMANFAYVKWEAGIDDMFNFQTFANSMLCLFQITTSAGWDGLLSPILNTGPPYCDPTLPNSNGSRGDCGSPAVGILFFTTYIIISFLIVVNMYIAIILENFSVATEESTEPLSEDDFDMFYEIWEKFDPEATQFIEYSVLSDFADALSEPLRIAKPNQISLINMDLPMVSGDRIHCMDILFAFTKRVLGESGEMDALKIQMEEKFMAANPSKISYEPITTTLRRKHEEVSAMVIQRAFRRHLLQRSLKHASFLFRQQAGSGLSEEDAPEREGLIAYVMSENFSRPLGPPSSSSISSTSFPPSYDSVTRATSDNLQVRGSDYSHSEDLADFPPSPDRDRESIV

For `CCC(CO)NCCOc1c(C)cccc1Cl` (centres unmarked) [KM-408, R,S-2-((2-(2-chloro-6-methylphenoxy)ethyl)amino)butan-1-ol hydrochloride], the Rate constant k [1] was 0.83·10^–3 h^−1, the t0.1 [1] was 127.0 h and the half-life at 5 mg/mL ([1]; borate buffer with 20% v/v 1,4-dioxane, pH 9.9, read-out: Half-life t0.5 (converted)) was 34.8 days. For the same compound, the t0.5λz (Tissue distribution; Brain) was 28.56 min, the t0.5λz (Tissue distribution; Heart) was 41.30 min and the t0.5λz (Tissue distribution; Kidneys) was 16.23 min. The t0.5λz (Tissue distribution; Liver) was 41.99 min, the t0.5λz (Tissue distribution; Lungs) was 30.84 min and the “concentration in rat brain (approximated)” value (Tissue distribution; 2 h after iv, tissue density 1 g/mL assumed) was ~2.2*10^–7 M. The concentration at 2 h (Tissue distribution; male, Wistar, rat, brain, 5 mg/kg, 2 h after iv administration) was 64.9 ng/g, the Cmax (Tissue distribution; male, Wistar, rat, Brain) was 1770 ng/g and the MRT (Tissue distribution; male, Wistar, rat, Brain) was 37.9 min. For the same compound, the Tmax (Tissue distribution; male, Wistar, rat, Brain) was 5 min, the Kp (Tissue distribution; male, Wistar, rat, Brain) was 0.83 and the k el (Tissue distribution; male, Wistar, rat, Brain) was 0.0004 s⁻¹. It also gave a Cmax (Tissue distribution; male, Wistar, rat, Heart) of 494 ng/g, an MRT (Tissue distribution; male, Wistar, rat, Heart) of 58.5 min and a Tmax (Tissue distribution; male, Wistar, rat, Heart) of 15 min. It also gave a Kp (Tissue distribution; male, Wistar, rat, Heart) of 0.38, a k el (Tissue distribution; male, Wistar, rat, Heart) of 0.000283 s⁻¹ and a Cmax (Tissue distribution; male, Wistar, rat, Kidneys) of 1950 ng/g. For the same compound, the MRT (Tissue distribution; male, Wistar, rat, Kidneys) was 25.3 min, the Tmax (Tissue distribution; male, Wistar, rat, Kidneys) was 5 min and the Kp (Tissue distribution; male, Wistar, rat, Kidneys) was 0.62. For the same compound, the k el (Tissue distribution; male, Wistar, rat, Kidneys) was 0.000717 s⁻¹, the Cmax (Tissue distribution; male, Wistar, rat, Liver) was 161 ng/g and the MRT (Tissue distribution; male, Wistar, rat, Liver) was 113 min. The Tmax (Tissue distribution; male, Wistar, rat, Liver) was 5 min, the Kp (Tissue distribution; male, Wistar, rat, Liver) was 0.14 and the k el (Tissue distribution; male, Wistar, rat, Liver) was 0.000283 s⁻¹. The Cmax (Tissue distribution; male, Wistar, rat, Lungs) was 4350 ng/g, the MRT (Tissue distribution; male, Wistar, rat, Lungs) was 46.9 min and the Tmax (Tissue distribution; male, Wistar, rat, Lungs) was 5 min. The Kp (Tissue distribution; male, Wistar, rat, Lungs) was 1.76, the k el (Tissue distribution; male, Wistar, rat, Lungs) was 0.000383 s⁻¹ and the “effect on the thermal pain threshold” value (mice [2]; 10 mg/kg ip) was “no significant effect”. The “prolongation of nocifensive response” value (mice [2]; 30 mg/kg ip) was 123%, the “prolongation of nocifensive response” value (mice [2]; 100 mg/kg ip) was 177% and the “hot plate test: active at” value (mice [2]; mice, ip) was 30 mg/kg. For the same compound, the “Inhibition of pain reaction” value (guinea pigs; 0.125%, 30 min) was 33.3* %, the “Inhibition of pain reaction” value (guinea pigs; 0.125%, 60 min) was 38.9* % and the “Inhibition of pain reaction” value (guinea pigs; 0.125%, 120 min) was 33.3* %. For the same compound, the “Inhibition of pain reaction” value (guinea pigs; 0.5%, 30 min) was 93.3*** %, the “Inhibition of pain reaction” value (guinea pigs; 0.5%, 60 min) was 81.2*** % and the “Inhibition of pain reaction” value (guinea pigs; 0.5%, 120 min) was 66.7*** %. The “Inhibition of pain reaction” value (guinea pigs; 0.5%, 240 min) was 20.0%, the “Inhibition of pain reaction” value (guinea pigs; […], 30 min) was 81.2*** % and the “Inhibition of pain reaction” value (guinea pigs; […], 60 min) was 64.7** %. The “Inhibition of pain reaction” value (guinea pigs; […], 120 min) was 70.6*** %, the “Inhibition of pain reaction” value (guinea pigs; […], 240 min) was 33.3* % and the “infiltration anesthesia: active at” value (guinea pigs; guinea pigs) was 0.125%. The LD50 at 24 h (Acute toxicity (LD50); mouse, mice) was 19.8 mg/kg, the LD50 at 72 h (Acute toxicity (LD50); mouse, mice) was 246 mg/kg and the LD50 at 24 h (Acute toxicity (LD50); rat, rats) was 22.6 mg/kg. For the same compound, the LD50 at 72 h (Acute toxicity (LD50); rat, rats) was 670 mg/kg, the “% of effect (II phase)” value (mice [3]; 30.0 mg/kg) was 26.6% and the “Time of licking paw ± SEM (I phase)” value (mice [3]; 30.0 mg/kg) was 60.6 ± 8.0 s. The “Time of licking paw ± SEM (II phase)” value (mice [3]; 30.0 mg/kg) was 22.4 ± 6.5 s, the “formalin test (I phase): active at” value (mice [3]) was 30 mg/kg and the “Threshold ± S.E.M.” value (rats; 0.0 h (pre-drug)) was 2.88 ± 0.59 g. For the same compound, the “% Pre-Drug ± S.E.M.” value (rats; 0.5 h) was 131 ± 15%, the “Threshold ± S.E.M.” value (rats; 0.5 h) was 3.07 ± 0.51 g and the “% Pre-Drug ± S.E.M.” value (rats; 1.0 h) was 202 ± 19%. The “Threshold ± S.E.M.” value (rats; 1.0 h) was 5.94 ± 1.19 g, the “% Pre-Drug ± S.E.M.” value (rats; 2.0 h) was 301 ± 45 % and the “Threshold ± S.E.M.” value (rats; 2.0 h) was 8.23 ± 1.56 g. For the same compound, the “% Pre-Drug ± S.E.M.” value (rats; 4.0 h) was 260 ± 39 %, the “Threshold ± S.E.M.” value (rats; 4.0 h) was 7.09 ± 1.31 g and the “% Pre-Drug ± S.E.M.” value (rats; 6.0 h) was 186 ± 31%. The “Threshold ± S.E.M.” value (rats; 6.0 h) was 5.34 ± 1.32 g, the “SNL TPE” value (rats; ip) was 2 h and the “SNL: active at” value (rats; ip, von Frey test) was 6.0 mg/kg and 6 mg/kg. For the same compound, the viability at 24 h, 250 µM (MTT assay) was 81%, the “effect on acetic acid-induced writhing” value (mice [4]) was “not significantly effective” and the IC50 (hNav1.5 sodium channel; 10 Hz) was 4.85 µM. The IC50 (hNav1.5 sodium channel; Inactivated state) was < 10 µM, the IC50 (hNav1.5 sodium channel; Tonic block) was 47.9 µM and the IC50 (hNav1.3 sodium channel; 10 Hz) was 13.1 µM. The IC50 (hNav1.3 sodium channel; Inactivated state) was < 10 µM and the IC50 (hNav1.3 sodium channel; Tonic block) was 49.2 µM.
